Patent publication US8399378B2, “Use of neonicotinoids in pest control” (Syngenta Crop Protection LLC, priority 1998, dated 2013)

Assays:
Format in all cases: in vivo
Heliothis virescens [1] = assay: Spray test on young cotton plants, action against Heliothis virescens larvae; conditions: non-transgenic cotton treated with compound and conventional CryIIIA-toxin, each 100, 50, 10, 5, 1 ppm
Heliothis virescens [2] = assay: as above; conditions: spray 100, 50, 10, 5, 1 ppm, evaluation 3 to 10 days
Excerpt: (§1) Young transgenic cotton plants which express the δ-endotoxin CryIIIA are sprayed with an aqueous emulsion spray mixture comprising 100, 50, 10, 5, 1 ppm of imidacloprid respectively. After the spray coating has dried on, the cotton plants are populated with 10 adult Anthonomus grandis, 10 Spodoptera littoralis larvae or 10 Heliothis virescens larvae respectively and introduced into a plastic container. Evaluation takes place 3 to 10 days later.
as §1, with “thiamethoxam” for “imidacloprid”
as §1, with “Ti-435” for “imidacloprid”, “later. […]” for “later.”

Spodoptera littoralis [3] = assay: Spray test on young cotton plants, action against Spodoptera littoralis larvae
Excerpt: as §1
as §1, with “thiamethoxam” for “imidacloprid”
as §1, with “Ti-435” for “imidacloprid”
as §1, with “CryIa(c)” for “CryIIIA”, “Ti-435” for “imidacloprid”
as §1, with “CryIa(c)” for “CryIIIA”, “thiamethoxam” for “imidacloprid”
as §1, with “CryIa(c)” for “CryIIIA”

Anthonomus grandis [4] = assay: Spray test on young cotton plants, action against Anthonomus grandis adults; conditions: spray 100, 50, 10, 5, 1 ppm, evaluation 3 to 10 days
Excerpt: as §1
as §1, with “thiamethoxam” for “imidacloprid”
as §1, with “Ti-435” for “imidacloprid”
as §1, with “CryIa(c)” for “CryIIIA”, “Ti-435” for “imidacloprid”
as §1, with “CryIa(c)” for “CryIIIA”, “thiamethoxam” for “imidacloprid”
as §1, with “CryIa(c)” for “CryIIIA”

Ostrinia nubilalis = assay: Maize plot spray test (KnockOut vs conventional maize), action against Ostrinia nubilalis; conditions: 6 days; for control (percentage reduction in population, % action): plot (a) maize cv. KnockOut, spray 200, 100, 50, 10, 5, 1 ppm, natural infestation; for control level: plot (b) conventional maize, compound 200, 100, 50, 10, 5, 1 ppm, then same ppm of the endotoxin expressed by KnockOut
Protocol: (§2) A plot (a) planted with maize cv. KnockOut® and an adjacent plot (b) of the same size which is planted with conventional maize, both showing natural infestation with Ostrinia nubilalis, Spodoptera spp. or Heliothis, are sprayed with an aqueous emulsion spray mixture comprising 200, 100, 50, 10, 5, 1 ppm of Ti-435. Immediately afterwards, plot (b) is treated with an emulsion spray mixture comprising 200, 100, 50, 10, 5, 1 ppm of the endotoxin expressed by KnockOut®. Evaluation takes place 6 days later. The percentage reduction in population (% action) is determined by comparing the number of dead pests on the plants of plot (a) with that on the plants of plot (b).
as §2, with “thiamethoxam.” for “Ti-435.”
as §2, with “imidacloprid.” for “Ti-435.”

Spodoptera spp. = assay: Maize plot spray test (KnockOut vs conventional maize), action against Spodoptera spp.; conditions: 6 days; for control (percentage reduction in population, % action): plot (a) maize cv. KnockOut, spray 200, 100, 50, 10, 5, 1 ppm, natural infestation; for control level: plot (b) conventional maize, compound 200, 100, 50, 10, 5, 1 ppm, then same ppm of the endotoxin expressed by KnockOut
Protocol: as §2
as §2, with “thiamethoxam.” for “Ti-435.”
as §2, with “imidacloprid.” for “Ti-435.”

Spodoptera littoralis [5] = assay: Spray test on young cotton plants, action against Spodoptera littoralis larvae; remark: listed apart in the source
Anthonomus grandis [6] = assay: Spray test on young cotton plants, action against Anthonomus grandis adults; conditions: non-transgenic cotton treated with compound and conventional CryIIIA-toxin, each 100, 50, 10, 5, 1 ppm
Heliothis spp. = assay: Maize plot spray test (KnockOut vs conventional maize), action against Heliothis spp.; conditions: 6 days; for control (percentage reduction in population, % action): plot (a) maize cv. KnockOut, spray 200, 100, 50, 10, 5, 1 ppm, natural infestation; for control level: plot (b) conventional maize, compound 200, 100, 50, 10, 5, 1 ppm, then same ppm of the endotoxin expressed by KnockOut
Protocol: as §2
as §2, with “thiamethoxam.” for “Ti-435.”
as §2, with “imidacloprid.” for “Ti-435.”

[7] = comparison arm for CryIa(c) cotton
[8] = transgenic cotton expressing δ-endotoxin CryIIIA, compared with non-transgenic plant
[9] = transgenic cotton expressing δ-endotoxin CryIa(c)
[10] = non-transgenic cotton treated with compound and conventional CryIIIA-toxin, each 100, 50, 10, 5, 1 ppm, comparison arm for CryIa(c) cotton
[11] = transgenic cotton expressing δ-endotoxin CryIa(c), spray 100, 50, 10, 5, 1 ppm, evaluation 3 to 10 days
[12] = transgenic cotton expressing δ-endotoxin CryIIIA, spray 100, 50, 10, 5, 1 ppm, evaluation 3 to 10 days, compared with non-transgenic plant
[13] = comparison arm for CryIIIA cotton

Row | SMILES | control of the tested insects (percentage reduction in population or feeding damage, % action) (Heliothis virescens [1]; [7]) | control of the tested insects (percentage reduction in population or feeding damage, % action) (Heliothis virescens [2]; [8]) | control of the tested insects (percentage reduction in population or feeding damage, % action) (Heliothis virescens [2]; [9]) | control of the tested insects (percentage reduction in population or feeding damage, % action) (Spodoptera littoralis [3]; [10]) | control of the tested insects (percentage reduction in population or feeding damage, % action) (Spodoptera littoralis [3]; [11]) | control of the tested insects (percentage reduction in population or feeding damage, % action) (Anthonomus grandis [4]; [8]) | control of the tested insects (percentage reduction in population or feeding damage, % action) (Anthonomus grandis [4]; [9]) | control (percentage reduction in population, % action) (Ostrinia nubilalis) | control level (Ostrinia nubilalis) [%] | control (percentage reduction in population, % action) (Spodoptera spp.) | control level (Spodoptera spp.) [%] | control of the tested insects (percentage reduction in population or feeding damage, % action) (Spodoptera littoralis [5]; [12]) | control of the tested insects (percentage reduction in population or feeding damage, % action) (Anthonomus grandis [6]; [7]) | control (percentage reduction in population, % action) (Heliothis spp.) | control level (Heliothis spp.) [%] | control of the tested insects (percentage reduction in population or feeding damage, % action) (Heliothis virescens [1]; [13]) | control of the tested insects (percentage reduction in population or feeding damage, % action) (Spodoptera littoralis [5]; non-transgenic cotton treated with compound and conventional CryIIIA-toxin, each 100, 50, 10, 5, 1 ppm, comparison arm for CryIIIA cotton) | control of the tested insects (percentage reduction in population or feeding damage, % action) (Anthonomus grandis [6]; [13])
1 | O=[N+]([O-])/N=C1\NCCN1Cc1ccc(Cl)nc1 [imidacloprid] | insufficient | superior | superior | insufficient | superior | superior | superior | Improved control | ≤ 60 | Improved control | ≤ 60 | superior | insufficient | Improved control | ≤ 60 | – | – | –
2 | CN/C(=N\[N+](=O)[O-])NCc1cnc(Cl)s1 [Ti-435] | insufficient | superior | superior | insufficient | superior | superior | superior | Improved control | ≤ 60 | Improved control | ≤ 60 | superior | insufficient | Improved control | ≤ 60 | insufficient | insufficient | insufficient
